Common to all, as to format: cell-based
One assay relates to S. aureus UC9213. Kind of assay: MIC by standard agar dilution, S. aureus UC9213. The note with it: incubated overnight at 35° C.; for MIC: Staphylococcus aureus, UC9213, Mueller Hinton agar; for S. aureus UC9213 MIC: Mueller Hinton agar. An excerpt: (§1) The in vitro activity of compounds of the subject invention may be assessed by standard testing procedures such as the determination of minimum inhibitory concentration (MIC) by agar dilution as described in “Approved Standard. Methods for Dilution Antimicrobial Susceptibility Tests for Bacteria that Grow Aerobically,” 3rd ed., published 1993 by the National Committee for Clinical Laboratory standards, Villanova, Pa., USA.
(§2) The in vitro MICs of test compounds may be determined by a standard agar dilution method. A stock drug solution of each analog is prepared in a preferred solvent, usually DMSO:H2O (1:3). Serial 2-fold dilutions of each sample are made using 1.0 mL aliquots of sterile distilled water. To each 1.0 mL aliquot of drug is added 9 mL of molten Mueller Hinton agar medium. The drug-supplemented agar is mixed, poured into 15×100 mm petri dishes, and allowed to solidify and dry prior to inoculation.
(§3) Vials of each of the test organisms are maintained frozen in the vapor phase of a liquid nitrogen freezer. Test cultures are grown overnight at 35° C. on the medium appropriate for the organism. Colonies are harvested with a sterile swab, and cell suspensions are prepared in Trypticase Soy broth (TSB) to equal the turbidity of a 0.5 McFarland standard. A 1:20 dilution of each suspension is made in TSB. The plates containing the drug supplemented agar are inoculated with a 0.001 mL drop of the cell suspension using a Steers replicator, yielding approximately 10^4 to 10^5 cells per spot. The plates are incubated overnight at 35° C.
(§4) Following incubation the Minimum Inhibitory Concentration (MIC μg/mL), the lowest concentration of drug that inhibits visible growth of the organism, is read and recorded.

The next assay has as its system S. pneumoniae UC9912. Briefly: MIC by standard agar dilution, S. pneumoniae UC9912. The note with it: incubated overnight at 35° C.; for MIC: Streptococcus pneumoniae, UC9912, Mueller Hinton agar; for S. pneumoniae UC9912 MIC: Mueller Hinton agar.
Text: as §1, §2, §3, §4

The next assay has as its system H. influenzae 30063. Kind of assay: MIC by standard agar dilution, H. influenzae 30063. The conditions noted are these: Mueller Hinton agar, incubated overnight at 35° C.; for MIC: Haemophilus influenzae, 30063, agar dilution, read-out: H. influenzae 30063 MIC.
Text: as §1, §2, §3, §4
A general note: In agar dilution the substance is mixed into plates at graded concentrations.

This note sets out measurements from patent publication US7279494B2, “Antimicrobial [3.1.0] bicyclohexylphenyl-oxazolidinone derivatives and analogues” (Pfizer Inc., priority 2003, dated 2007).

Converted amounts (≈) assume the structure as drawn.

Turning to `CC(=O)NC[C@H]1CN(c2ccc([C@H]3[C@@H]4C[S+]([O-])C[C@@H]43)c(F)c2)C(=O)O1` (stereo partly drawn) [Example 2, N-[((5S)-3-{3-fluoro-4-[exo-(1R,5S)-3-oxido-3-thiabicyclo[3.1.0]hex-6-yl]phenyl}-2-oxo-1,3-oxazolidin-5-yl)methyl]acetamide], the results for the MIC against S. aureus UC9213, in the assay on S. pneumoniae UC9912 and in the assay on H. influenzae 30063 were 2 µg/mL (≈ 5.46 µM), 0.25 µg/mL (≈ 0.682 µM) and 2 µg/mL (≈ 5.46 µM), respectively.

As for `CC(=O)NC[C@H]1CN(c2ccc([C@H]3[C@@H]4CS(=O)(=O)C[C@@H]43)c(F)c2)C(=O)O1` [Example 3, N-[((5S)-3-{4-[exo-(1R,5S)-3,3-dioxido-3-thiabicyclo[3.1.0]hex-6-yl]-3-fluorophenyl}-2-oxo-1,3-oxazolidin-5-yl)methyl]acetamide], the MIC stood at 2 µg/mL (≈ 5.23 µM) with S. aureus UC9213, 0.25 µg/mL (≈ 0.654 µM) in the assay with S. pneumoniae UC9912 and 4 µg/mL (≈ 10.5 µM) with H. influenzae 30063.

In the case of `CC(=O)NC[C@H]1CN(c2ccc([C@H]3[C@@H]4COC[C@@H]43)c(F)c2)C(=O)O1` [Example 4, N-[((5S)-3-{3-fluoro-4-[exo-(1R,5S)-3-oxabicyclo[3.1.0]hex-6-yl]phenyl}-2-oxo-1,3-oxazolidin-5-yl)methyl]acetamide], the MIC in the assay on S. aureus UC9213 was 4 µg/mL (≈ 12 µM); with S. pneumoniae UC9912 it was 0.5 µg/mL (≈ 1.5 µM); with H. influenzae 30063 it was 4 µg/mL (≈ 12 µM).

For the compound `CC(=O)NC[C@H]1CN(c2ccc([C@H]3[C@@H]4CN(C(=O)CO)C[C@@H]43)c(F)c2)C(=O)O1` [Example 5, N-[((5S)-3-{3-fluoro-4-[exo-(1R,5S)-3-glycoloyl-3-azabicyclo[3.1.0]hex-6-yl]phenyl}-2-oxo-1,3-oxazolidin-5-yl)methyl]acetamide], the MIC against S. aureus UC9213 came to 2 µg/mL (≈ 5.11 µM); in the assay on S. pneumoniae UC9912, 0.25 µg/mL (≈ 0.639 µM); in the assay with H. influenzae 30063 it was 4 µg/mL (≈ 10.2 µM).

Turning to `O=C(CO)N1C[C@@H]2[C@H](C1)[C@H]2c1ccc(N2C[C@H](CNC(=S)C(F)F)OC2=O)cc1F` [Example 6, 2,2-difluoro-N-[((5S)-3-{3-fluoro-4-[exo-(1R,5S)-3-gycoloyl-3-azabicyclo[3.1.0]hex-6-yl]phenyl}-2-oxo-1,3-oxazolidin-5-yl)methyl]ethanethioamide], the figures for the MIC in the assay on S. aureus UC9213, against S. pneumoniae UC9912 and with H. influenzae 30063 were 0.5 µg/mL (≈ 1.13 µM), 0.25 µg/mL (≈ 0.564 µM) and 4 µg/mL (≈ 9.02 µM), respectively.

With `COC(=O)N1C[C@@H]2C(c3ccc(N4C[C@H](CNC(C)=O)OC4=O)cc3F)[C@@H]2C1` (stereo partly drawn) [Example 7, methyl exo-(1R,5S)-6-(4-{(5S)-5-[(acetylamino)methyl]-2-oxo-1,3-oxazolidin-3-yl}-2-fluorophenyl)-3-azabicyclo[3.1.0]hexane-3-carboxylate], the “S. aureus UC9213 MIC” value in the assay on S. aureus UC9213 amounted to 2 µg/mL. Further, in the assay on S. pneumoniae UC9912, the “S. pneumoniae UC9912 MIC” value came out at 0.5 µg/mL.

As to `CC(=O)NC[C@H]1CN(c2ccc([C@H]3[C@@H]4CN(C=O)C[C@@H]43)c(F)c2)C(=O)O1` [Example 8, N-[((5S)-3-{3-fluoro-4-[exo-(1R,5S)-3-formyl-3-azabicyclo[3.1.0]hex-6-yl]phenyl}-2-oxo-1,3-oxazolidin-5-yl)methyl]acetamide], the MIC against S. aureus UC9213 amounted to 4 µg/mL (≈ 11.1 µM); with S. pneumoniae UC9912, 1 µg/mL (≈ 2.77 µM); with H. influenzae 30063, 8 µg/mL (≈ 22.1 µM).

With `CC(=O)NC[C@H]1CN(c2ccc([C@H]3[C@@H]4CN(C(=O)[C@@H](O)CO)C[C@@H]43)c(F)c2)C(=O)O1` [Example 9, N-[((5S)-3-{3-fluoro-4-[exo-(1R,5S)-3-((2S)-2,3-dihydroxypropanoyl)-3-azabicyclo[3.1.0]hex-6-yl]phenyl}-2-oxo-1,3-oxazolidin-5-yl)methyl]acetamide], the MIC is 8 µg/mL (≈ 19 µM) in the assay with S. aureus UC9213, 1 µg/mL (≈ 2.37 µM) with S. pneumoniae UC9912 and 8 µg/mL (≈ 19 µM) in the assay with H. influenzae 30063.

`CC(=O)NC[C@H]1CN(c2ccc([C@H]3[C@@H]4CN(C(N)=O)C[C@@H]43)c(F)c2)C(=O)O1` [Example 10, exo-(1R,5S)-6-(4-{(5S)-5-[(acetylamino)methyl]-2-oxo-1,3-oxazolidin-3-yl}-2-fluorophenyl)-3-azabicyclo[3.1.0]hexane-3-carboxamide]: the MIC came to 2 µg/mL (≈ 5.31 µM) in the assay on S. aureus UC9213, 0.5 µg/mL (≈ 1.33 µM) against S. pneumoniae UC9912 and 4 µg/mL (≈ 10.6 µM) with H. influenzae 30063.

For the compound `NC(=O)N1C[C@@H]2[C@H](C1)[C@H]2c1ccc(N2C[C@H](CNC(=S)C(F)F)OC2=O)cc1F` [Example 11, exo-(1R,5S)-6-[4-((5S)-5-{[(2,2-difluoroethanethioyl)amino]methyl}-2-oxo-1,3-oxazolidin-3-yl)-2-fluorophenyl]-3-azabicyclo[3.1.0]hexane-3-carboxamide], the results for the MIC in the assay with S. aureus UC9213, in the assay with S. pneumoniae UC9912 and with H. influenzae 30063 were 0.5 µg/mL (≈ 1.17 µM), 0.25 µg/mL (≈ 0.584 µM) and 2 µg/mL (≈ 4.67 µM), respectively.

For `CC(=O)NC[C@H]1CN(c2cc(F)c([C@H]3[C@@H]4C[S+]([O-])C[C@@H]43)c(F)c2)C(=O)O1` (stereo partly drawn) [Example 12, N-[((5S)-3-{3,5-difluoro-4-[exo-(1R,5S)-3-oxido-3-thiabicyclo[3.1.0]hex-6-yl]phenyl}-2-oxo-1,3-oxazolidin-5-yl)methyl]acetamide], the “S. aureus UC9213 MIC” value in the assay on S. aureus UC9213 was 1 µg/mL. Further, the “S. pneumoniae UC9912 MIC” value in the assay with S. pneumoniae UC9912 stood at 0.5 µg/mL. Also, the “H. influenzae 30063 MIC” value in the assay with H. influenzae 30063 (agar dilution) was found to be 4 µg/mL.

`CC(=O)NC[C@H]1CN(c2cc(F)c([C@H]3[C@@H]4CS(=O)(=O)C[C@@H]43)c(F)c2)C(=O)O1` [Example 13, N-[((5S)-3-{4-[exo-(1R,5S)-3,3-dioxido-3-thiabicyclo[3.1.0]hex-6-yl]-3,5-difluorophenyl}-2-oxo-1,3-oxazolidin-5-yl)methyl]acetamide]: the MIC stood at 1 µg/mL (≈ 2.5 µM) against S. aureus UC9213, 0.5 µg/mL (≈ 1.25 µM) in the assay on S. pneumoniae UC9912 and 8 µg/mL (≈ 20 µM) with H. influenzae 30063.

`CC(=O)NC[C@H]1CN(c2cc(F)c([C@H]3[C@@H]4COC[C@@H]43)c(F)c2)C(=O)O1` [Example 14, N-[((5S)-3-{3,5-difluoro-4-[exo-(1R,5S)-3-oxabicyclo[3.1.0]hex-6-yl]phenyl}-2-oxo-1,3-oxazolidin-5-yl)methyl]acetamide]: the MIC with S. aureus UC9213 was 2 µg/mL (≈ 5.68 µM); in the assay with S. pneumoniae UC9912, 0.5 µg/mL (≈ 1.42 µM); with H. influenzae 30063, 16 µg/mL (≈ 45.4 µM).

`CC(=O)NC[C@H]1CN(c2cc(F)c([C@H]3[C@@H]4CN(C(=O)CO)C[C@@H]43)c(F)c2)C(=O)O1` [Example 15, N-[((5S)-3-{3,5-difluoro-4-[exo-(1R,5S)-3-glycoloyl-3-azabicyclo[3.1.0]hex-6-yl]phenyl}-2-oxo-1,3-oxazolidin-5-yl)methyl]acetamide]: the MIC is 2 µg/mL (≈ 4.89 µM) against S. aureus UC9213, 0.5 µg/mL (≈ 1.22 µM) in the assay with S. pneumoniae UC9912 and 16 µg/mL (≈ 39.1 µM) in the assay with H. influenzae 30063.

For `CC(=O)NC[C@H]1CN(c2ccc([C@H]3[C@@H]4COC[C@@H]43)cc2)C(=O)O1` [Example 16, N-[((5S)-3-{4-[exo-(1R,5S)-3-oxabicyclo[3.1.0]hex-6-yl]phenyl}-2-oxo-1,3-oxazolidin-5-yl)methyl]acetamide], the MIC against S. aureus UC9213 was 4 µg/mL (≈ 12.6 µM); with S. pneumoniae UC9912 it was 2 µg/mL (≈ 6.32 µM); with H. influenzae 30063, 16 µg/mL (≈ 50.6 µM).

Turning to `CC(=O)NC[C@H]1CN(c2ccc([C@H]3[C@@H]4CN(C(=O)CO)C[C@@H]43)cc2)C(=O)O1` [Example 17, N-[((5S)-3-{4-[exo-(1R,5S)-3-glycoloyl-3-azabicyclo[3.1.0]hex-6-yl]phenyl}-2-oxo-1,3-oxazolidin-5-yl)methyl]acetamide], the MIC in the assay on S. aureus UC9213 was found to be 4 µg/mL (≈ 10.7 µM); with S. pneumoniae UC9912, 2 µg/mL (≈ 5.36 µM); in the assay on H. influenzae 30063, 8 µg/mL (≈ 21.4 µM).

Regarding `CC(=O)NC[C@H]1CN(c2ccc([C@H]3[C@@H]4C[S+]([O-])C[C@@H]43)cc2)C(=O)O1` (stereo partly drawn) [Example 18, N-[((5S)-3-{4-[exo-(1R,5S)-3-oxido-3-thiabicyclo[3.1.0]hex-6-yl]phenyl}-2-oxo-1,3-oxazolidin-5-yl)methyl]acetamide], the MIC in the assay on S. aureus UC9213 is 2 µg/mL (≈ 5.74 µM); against S. pneumoniae UC9912, 0.5 µg/mL (≈ 1.44 µM); in the assay on H. influenzae 30063, 4 µg/mL (≈ 11.5 µM).
